Results reported in patent publication US20150079207A1, “Method for manufacturing Smilax China L root extract having increased active ingredients and beverage composition containing the extract fordetoxification” (priority 2013, published 2015).

What was measured:
Assay type in all cases: cell-based
HepG2 cells [1] = assay: Inhibition of formation of oxidatively damaged adducts caused by alcohol (DCFH-DA assay); conditions: 50, 100, 250 μM 2 h, then ethanol at IC50 24 h
Method: The DCFH-DA assay was generally described with reference to Evaluation Example 3.
(§1) Thereafter, the experimental groups and the control were treated with ethanol at an IC50 concentration, and cultured for 24 hours. Then, trypsin-EDTA was divided, and the cells were detached, and treated with a 5 μM DCFH-DA reagent. After 30 minutes, the fluorescence was measured at an excitation wavelength of 488 nm and an emission wavelength of 525 nm using a multi-microplate reader (Thermo scientific).

HepG2 cells [2] = assay: Protective effect on hepatotoxicity caused by alcohol (MTT assay); conditions: 50, 100, 250 μM 2 h, then ethanol at IC50 24 h
Method: The MTT assay was generally described with reference to Evaluation Example 2.
Thereafter, the experimental groups and the control were treated with an aqueous solution of ethanol (50%) at an IC50 concentration, and cultured for 24 hours. After the medium was removed, the experimental groups and the control were treated with a 3-4,5 dimethylthiazol-2,5 diphenyltetrazolium bromide (MTT) reagent, and then cultured for 4 hours. Then, the medium was removed, and the experimental groups and the control were treated with a DMSO reagent, and measured for absorbance at a wavelength of 570 nm using a multi-microplate reader (Thermo scientific). Also, the cell viability was calculated using Equation 1.

HepG2 cells [3] = assay: Conversion rate of nicotine into cotinine (cotinine quantitative assay); conditions: HepG2 after 1 mM nicotine; 50, 100, 250 μM (mixture 50, 100 μM); 10-120 min
Method: HepG2 (passage #99-100) cells kindly provided from the Korean Cell Line Bank were sub-cultured, divided into a 96 well plate, and then cultured under conditions of 5% CO2 and 37° C. until the cells reached 100% confluence, and the medium was removed. Thereafter, the HepG2 cells were cultured for a day in a medium containing 1 mM nicotine. […] Subsequently, the cultured cells were dividedly treated with trypsin-EDTA, and detached, and centrifuged to collect a cell pellet. The cell pellet was suspended in 100 μl of PBS, and homogenated for 30 seconds using an ultrasonicator. 100 μl of a 4M sodium acetate buffer (pH 4.7), 40 μl of 1.5M potassium cyanide, 40 μl of 0.4M chloramine T, and 200 μl of 78 mM barbituric acid (in acetone/water (50/50)) were sequentially added to the homogenated cells, mixed for 10 seconds, and then reacted at room temperature for 15 minutes. Then, 40 μl of 1M sodium metabisulfite was added to the reaction mixture to stop the reaction. Then, the reaction mixture was measured for absorbance at a wavelength of 490 nm using a multi-microplate reader (Thermo scientific), and the absorbance of the reaction mixture was quantified by comparison to the standard curve of a cotinine sample.

HepG2 cells [4] = assay: Inhibition of formation of oxidatively damaged adducts caused by nicotine (DCFH-DA assay); conditions: 50, 100, 250 μM (mixture 50, 100 μM) 2 h, then nicotine at IC50 24 h
Excerpt: When non-polar, uncharged DCFH-DA easily enters the cytoplasm through cell membranes, DCFH-DA is converted into 2′,7′-dichlorofluorescin (DCFH) showing no fluorescence by an intracellular enzyme, esterase, and DCFH is then oxidized into 2′,7′-dichlorofluorescein (DCF) showing fluorescence by various active oxygen produced in the cells. Since the measured fluorescence intensity is in proportion to a degree of intracellular oxidation, an effect of the index materials on oxidative damage of liver cells by nicotine was evaluated using the principle.
as §1, with “nicotine” for “ethanol”, “Trypsin-EDTA” for “Then, trypsin-EDTA”

| Structure (SMILES) | relative DCF fluorescence intensity (oxidatively damaged adducts by alcohol) vs alcohol-only control (HepG2 cells [1]) | absorbance (MTT, cell viability) vs alcohol-only control (HepG2 cells [2]) | cotinine conversion rate vs nicotine-only control (HepG2 cells [3]) | relative DCF fluorescence intensity (oxidatively damaged adducts by nicotine) vs nicotine-only control (HepG2 cells [4]) |
| --- | --- | --- | --- | --- |
| Oc1cc(O)cc(/C=C/c2ccc(O)cc2O)c1 [oxyresveratrol] | relative DCF fluorescence intensity tended to decrease | absorbance increased as the concentration of the index material increased | cotinine conversion rate increased | relative DCF fluorescence intensity tended to decrease |
| Oc1ccc(C=Cc2cc(O)cc(O)c2)cc1 [resveratrol] |  | absorbance increased as the concentration of the index material increased | cotinine conversion rate increased |  |
